Assay results reported in patent US20260184675A1, “CHIRAL ISOMERIC SULFITE COMPOUND AND APPLICATION THEREOF” (Chengdu Hanova BioSciences Co., Ltd, priority 2024, published 2026).

System: eggs of Tetranychus cinnabarinus
Experiment: Control efficacy on eggs of Tetranychus cinnabarinus of compounds compounded with ginger rhizome / Kaempferia galanga L rhizome mixture (Bliss joint action)
Type: in vivo
Details: for joint effect on controlling of eggs of Tetranychus cinnabarinus (in words): compounded with a mixture of ginger rhizome and Kaempferia galanga L rhizome (7:3); for Control efficacy for eggs of Tetranychus cinnabarinus on day 5 (%): single agent
Method: The ginger rhizome extract and volatile oil of Kaempferia galanga L rhizome were used to prepare a mixture of ginger rhizome and Kaempferia galanga L rhizome at a compounding ratio of 7:3, which was then compounded with compound 1, compound 10 and compound 19, and a leaf-disc method was used to evaluate the control efficacy on eggs of Tetranychus cinnabarinus based on the Experimental method in Example 1.
The ginger rhizome extract was prepared by extracting the ginger rhizome using a mixed solvent of ethyl acetate and ethanol at a ratio of 1:4.
According to the concept of independent joint action proposed by Bliss, the theoretical mortality rate P when the pesticides and acaricides are used in mixture can be calculated using the following equation: […]
Pm is the mortality rate (%) of the target when the first active component is used at a concentration of m; and Pn is the mortality rate (%) of the target when the second active component is used at a concentration of n.

CC(COS(=O)OCCF)Oc1ccc(Cl)cc1Cl (stereo not drawn) [Compound 1]
joint effect on controlling of eggs of Tetranychus cinnabarinus (in words): synergistic effect | Control efficacy for eggs of Tetranychus cinnabarinus on day 5 (%) (0.1 mg/L): 17.12% | Control efficacy for eggs of Tetranychus cinnabarinus on day 5 (%) (0.2 mg/L): 33.58% | Control efficacy for eggs of Tetranychus cinnabarinus on day 5 (%) (0.3 mg/L): 52.19%

CC(C)(COc1ccc(Cl)cc1Cl)OS(=O)OCCF (stereo not drawn) [Compound 10]
joint effect on controlling of eggs of Tetranychus cinnabarinus (in words): synergistic effect | Control efficacy for eggs of Tetranychus cinnabarinus on day 5 (%) (0.1 mg/L): 11.45% | Control efficacy for eggs of Tetranychus cinnabarinus on day 5 (%) (0.2 mg/L): 20.79% | Control efficacy for eggs of Tetranychus cinnabarinus on day 5 (%) (0.5 mg/L): 68.12%

CCC(COc1ccc(Cl)cc1Cl)OS(=O)OCCF (stereo not drawn) [Compound 19]
joint effect on controlling of eggs of Tetranychus cinnabarinus (in words): synergistic effect | Control efficacy for eggs of Tetranychus cinnabarinus on day 5 (%) (0.1 mg/L): 20.57% | Control efficacy for eggs of Tetranychus cinnabarinus on day 5 (%) (0.2 mg/L): 36.14% | Control efficacy for eggs of Tetranychus cinnabarinus on day 5 (%) (0.25 mg/L): 48.73%
